These results are taken from ChEMBL document CHEMBL5120876, “Design, synthesis and biological evaluation of novel indole derivatives as gut-selective NaPi2b inhibitors” (Bioorg Med Chem, 2022).

The target in data set [1] is T1, Sodium-dependent phosphate transport protein 2B (Homo sapiens, UniProt O95436).
T1 sequence (O95436 whole entry): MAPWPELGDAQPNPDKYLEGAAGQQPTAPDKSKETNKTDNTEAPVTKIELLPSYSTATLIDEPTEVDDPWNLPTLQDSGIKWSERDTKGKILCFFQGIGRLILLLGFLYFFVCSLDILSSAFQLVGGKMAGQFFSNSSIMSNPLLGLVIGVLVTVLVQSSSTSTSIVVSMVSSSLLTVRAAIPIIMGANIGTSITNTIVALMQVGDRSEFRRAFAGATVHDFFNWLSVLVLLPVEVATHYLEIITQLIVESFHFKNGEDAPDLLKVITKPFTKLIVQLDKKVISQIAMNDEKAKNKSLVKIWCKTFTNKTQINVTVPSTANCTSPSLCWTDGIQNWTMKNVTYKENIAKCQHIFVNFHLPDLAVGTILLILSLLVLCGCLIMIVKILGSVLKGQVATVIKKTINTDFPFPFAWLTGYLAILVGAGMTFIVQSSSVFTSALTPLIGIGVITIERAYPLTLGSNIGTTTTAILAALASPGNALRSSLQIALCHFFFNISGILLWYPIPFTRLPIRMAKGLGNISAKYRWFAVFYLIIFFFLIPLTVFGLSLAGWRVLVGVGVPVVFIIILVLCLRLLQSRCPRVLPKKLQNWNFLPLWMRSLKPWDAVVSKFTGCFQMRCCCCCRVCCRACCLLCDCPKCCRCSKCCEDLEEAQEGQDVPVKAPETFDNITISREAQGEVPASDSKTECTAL
Nature of the data set: Inhibition of human NaPi2b expressed in CHO-K1 cells assessed as reduction in [33P] uptake preincubated with compound for 30 mins followed by [33P]O4 addition and measured after 30 mins by TopCount liquid scintillation counting method. Format: cell-based.

A short description of data set [2]: Drug excretion in Sprague-Dawley rat feces assessed as cumulative amount of unchanged drug excreted at 10 mg/kg, po administered as single dose and measured within 24 hrs by LC-MS analysis. Format: ADME, organism-based. Particulars: faeces, read-out: Ae.
The nature of data set [3]: Drug concentration in Sprague-Dawley rat intestine at 10 mg/kg, po administered as single dose. In kind it is ADME, organism-based. Particulars: in vivo.
Data set [4] has as its target T2, Sodium-dependent phosphate transport protein 2B (Rattus norvegicus, UniProt Q9JJ09).
T2 sequence (Q9JJ09 whole entry): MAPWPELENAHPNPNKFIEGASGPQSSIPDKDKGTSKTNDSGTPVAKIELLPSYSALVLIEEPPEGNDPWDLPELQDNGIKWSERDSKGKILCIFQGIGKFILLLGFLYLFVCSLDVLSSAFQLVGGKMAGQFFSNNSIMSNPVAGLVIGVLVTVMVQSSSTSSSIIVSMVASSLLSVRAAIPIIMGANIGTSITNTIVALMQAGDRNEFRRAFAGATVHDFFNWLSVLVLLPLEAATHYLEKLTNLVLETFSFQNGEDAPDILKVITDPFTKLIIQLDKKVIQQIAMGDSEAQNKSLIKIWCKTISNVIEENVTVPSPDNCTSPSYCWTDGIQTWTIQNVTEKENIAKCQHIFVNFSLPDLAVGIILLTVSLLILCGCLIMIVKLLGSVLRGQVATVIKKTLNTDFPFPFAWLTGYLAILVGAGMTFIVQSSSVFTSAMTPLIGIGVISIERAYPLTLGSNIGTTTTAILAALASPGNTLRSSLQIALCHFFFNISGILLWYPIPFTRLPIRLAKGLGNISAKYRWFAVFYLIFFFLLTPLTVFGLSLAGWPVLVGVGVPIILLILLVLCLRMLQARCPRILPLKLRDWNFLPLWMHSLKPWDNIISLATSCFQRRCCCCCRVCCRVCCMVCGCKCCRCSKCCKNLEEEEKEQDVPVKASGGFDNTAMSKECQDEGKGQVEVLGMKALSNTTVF
The data set can be described thus: Inhibition of rat NaPi2b expressed in CHO-K1 cells assessed as reduction in [33P] uptake preincubated with compound for 30 mins followed by [33P]O4 addition and measured after 10 mins by TopCount liquid scintillation counting method. In kind it is cell-based.

Data set [5] is described as follows: Oral bioavailability in Sprague-Dawley rat at 10 mg/kg administered as single dose by LC-MS analysis. In kind it is ADME, organism-based. Particulars: in vivo.
The test system of a further data set is Rattus norvegicus. Nature of the data set: In vivo inhibition of NaPi2b in Sprague-Dawley rat assessed as reduction in phosphate absorption at 10 mg/kg, po preincubated for 5 mins followed by addition of NaH2PO4 containing 32P-phosphate solution and measured after 15 to 30 mins by liquid scintillation counting method. Format: functional, organism-based. Particulars: time 20.0 min.

A short description of data set [6]: AUC (0 to t) in Sprague-Dawley rat at 1.17 mg/kg, iv administered as single dose by LC-MS analysis. Also noted: dose 1.17 mg/kg, route iv. Particulars: in vivo. In kind it is ADME, organism-based.
Data set [7] can be described thus: AUC (0 to t) in Sprague-Dawley rat at 10 mg/kg, po administered as single dose by LC-MS analysis. Format: ADME, organism-based. Also noted: dose 10 mg/kg, route po. Particulars: in vivo.
A short description of data set [8]: Cmax in Sprague-Dawley rat at 10 mg/kg, po administered as single dose by LC-MS analysis. In kind it is ADME, organism-based. Also noted: dose 10 mg/kg, route po. Particulars: in vivo.
Data set [9] is described as follows: Solubility of the compound in fasted state simulated intestinal fluid at pH 6.5 incubated for 24 hrs by HPLC analysis. In kind it is physicochemical.
Data set [10] in a line: Solubility of the compound in fed state simulated intestinal fluid at pH 5.0 incubated for 24 hrs by HPLC analysis. In kind it is physicochemical.
A short description of data set [11]: AUC (0 to t) in Sprague-Dawley rat at 1 mg/kg, iv administered as single dose by LC-MS analysis. Particulars: in vivo. On the set-up: dose 1 mg/kg, route iv. Format: ADME, organism-based.
The target of data set [12] is T1, Sodium-dependent phosphate transport protein 2B. Nature of the data set: Inhibition of NaPi2b (unknown origin).
The target in data set [13] is T3, Sodium-dependent phosphate transport protein 2B (Homo sapiens) (UniProt O95436).
T3 sequence (whole entry): T1 sequence (O95436 whole entry)
Nature of the data set: Inhibition of human NaPi2b at 1 uM relative to control.

≈ marks a conversion by molar mass, not a printed value. Calls of active or inactive are those of the source. The calls are words filed in the database; no cut-off is given here.

In the case of `CCC(CC)N(CCN(C)C(=O)CCC(=O)NCCOCCOCCOCCC(=O)O)Cc1cccc(C(=O)Nc2[nH]c3ccccc3c2C(=O)Nc2ccc(CCCc3ccc(C(=O)O)cc3)cc2)c1`, the IC50 in data set [1] was 535 nM.

Take `CCC(CC)N(CCN(C)C(=O)NCC(=O)O)Cc1cccc(C(=O)Nc2[nH]c3ccccc3c2C(=O)Nc2ccc(CCCc3ccc(C(=O)O)cc3)cc2)c1`: the IC50 in data set [1] turned out to be 369 nM.

In the case of `CCCC(CCC)N(CCN(C)C(=O)CCC(=O)O)Cc1cccc(C(=O)Nc2[nH]c3ccccc3c2C(=O)Nc2ccc(CCCc3ccc(C(=O)O)cc3)cc2)c1`, the IC50 in data set [1] stood at 78 nM.

As to `CCC(CC)N(CCN(C)C(=O)CNS(=O)(=O)c1c[nH]c(C(N)=O)c1)Cc1cccc(C(=O)Nc2[nH]c3ccccc3c2C(=O)Nc2ccc(CCCc3ccc(C(=O)O)cc3)cc2)c1`, in data set [1], the half-inhibitory concentration (IC50) was 401 nM.

For `CCC(CC)N(CCN(C)S(=O)(=O)NC(=O)OCC(=O)O)Cc1cccc(C(=O)Nc2[nH]c3ccccc3c2C(=O)Nc2ccc(CCCc3ccc(C(=O)O)cc3)cc2)c1`, the IC50 in data set [1] was 267 nM.

`CC(C)N(CCN(C)C(=O)CCC(=O)O)Cc1cccc(C(=O)Nc2[nH]c3ccccc3c2C(=O)Nc2ccc(CCCc3ccc(C(=O)O)cc3)cc2)c1`: the IC50 in data set [1] came to 356 nM.

For the molecule `CCC(CC)N(CCN(C)C(=O)CCC(=O)NCCOCCOCCOCCO)Cc1cccc(C(=O)Nc2[nH]c3ccccc3c2C(=O)Nc2ccc(CCCc3ccc(C(=O)O)cc3)cc2)c1`, the dose excreted at 24 h in data set [2] is 58.8%. Further, in data set [3], the Ct was found to be 34 µg/mL. The figures for the IC50 in [4] and in data set [1] were 98 nM and 166 nM, respectively. The molecule also had a bioavailability in data set [5] of 1.1%. Besides, the inhibition result in the data set with Rattus norvegicus was “Active”. In addition, the AUC(0-t) is 170 ng·h/mL in data set [6] and 15.4 ng·h/mL in [7]. This molecule also gave a Cmax in data set [8] of 15.5 ng/mL. Moreover, the solubility at 24 h is above 482 µg/mL in data set [9] and above 479 µg/mL in data set [10].

In the case of `CCC(CC)N(CCN(C)C(=O)CCC(=O)O)Cc1cccc(C(=O)Nc2[nH]c3ccccc3c2C(=O)Nc2ccc(CCCc3ccc(C(=O)O)cc3)cc2)c1`, in [2], the dose excreted at 24 h came out at 68.1%. This molecule yielded a Ct in [3] of 39 µg/mL. Also, the results for the half-inhibitory concentration (IC50) in data set [4] and in data set [1] were 28 nM and 71 nM, respectively. In data set [5], this molecule displayed a bioavailability of 13.1%. The AUC(0-t) in data set [11] turned out to be 834 ng·h/mL; in [7], 1090 ng·h/mL. For the same molecule, the maximum concentration (Cmax) in data set [8] came to 568 ng/mL. The solubility at 24 h in data set [9] was 103 µg/mL (≈ 133 µM); in data set [10], 264 µg/mL (≈ 341 µM).

On to `CN(Cc1cccc(C(=O)Nc2[nH]c3ccccc3c2C(=O)Nc2ccc(CCCc3ccc(C(=O)O)cc3)cc2)c1)C1CCN(C(=O)CCC(=O)O)C1` (stereo not given), for which the half-maximal inhibitory concentration (IC50) in data set [1] was determined as 2580 nM.

On to `CN(C(=O)CCC(=O)O)C1CCN(Cc2cccc(C(=O)Nc3[nH]c4ccccc4c3C(=O)Nc3ccc(CCCc4ccc(C(=O)O)cc4)cc3)c2)C1` (stereo not given), for which the IC50 in data set [1] stood at 1020 nM.

On to `CCC(CC)N(CCN(C)C(=O)CCC(=O)O)Cc1cccc(C(=O)Nc2[nH]c3ccccc3c2C(=O)Nc2ccc(Cc3ccc(C(=O)O)cc3)cc2)c1`, for which the IC50 in data set [1] was 448 nM.

Regarding `CCC(CC)N(CCN(C)C(=O)CN1C(=O)NC2NC(=O)NC21)Cc1cccc(C(=O)Nc2[nH]c3ccccc3c2C(=O)Nc2ccc(CCCc3ccc(C(=O)O)cc3)cc2)c1` (stereo not given), the half-maximal inhibitory concentration (IC50) in data set [1] amounted to 401 nM.

As for `CCC(CC)N(CCN(C)C(=O)CCC(=O)O)Cc1cccc(C(=O)Nc2[nH]c3ccccc3c2C(=O)Nc2ccccc2)c1`, in data set [1], the IC50 is 538 nM.

As to `CCN(CC)c1ccc(NC(=O)c2cccc(CSCCOCCOCCOCCOCCOCCOCCOCCOCCC(=O)O)c2)c(-c2cc(C(=O)NCc3cccc(C(F)(F)F)c3)ccn2)c1`, in data set [12], it took 1000 nM to reach half-maximal inhibition (IC50).

With `CCN([C@H]1CC[C@H](C(=O)O)CC1)S(=O)(=O)c1cccc(C(=O)Nc2[nH]c3ccccc3c2C(=O)Nc2ccc(CCCc3ccc(C(=O)O)cc3)cc2)c1`, in data set [1], the IC50 was 257 nM.

With `CCC(CC)N(CCN(C)C(=O)CCC(=O)O)Cc1cccc(C(=O)Nc2sc3c(c2C(=O)Nc2ccc(CCc4ccc(C(=O)O)cc4)cc2)CCCC3)c1`, the inhibition in [13] stood at 87%.
